Measurements reported in US20250101383A1, “METHODS AND COMPOSITIONS FOR CARDIAC MODELS” (Sanford Burnham Prebys Medical Discovery Institute, priority 2023, published 2025).

Key:
[1] = test system: hiPSC-ACMs (atrial-like cardiomyocytes); assay: Arrhythmia assay and drug treatment in ACMs (arrhythmia index, AI); assay type: cell-based, human; settings: for percentage of cells with AI values >20: control 4%
Method: To test the platform's ability to identify APD modulators, ACMs of the present disclosure were infused with isoproterenol, a non-selective β-adrenergic agonist, known to both shorten APD and increase beat rate in hiPSC-CMs. […] Consistent with median APD75 values, escalating doses of isoproterenol (1 and 9 μM) led to an increase of APD75 KS-D value to ˜0.4 and 0.7 respectively, as compared to control (FIG. 5C). Similarly, to quantify cellular manifestations of arrhythmia, an arrhythmia index (AI) was developed that quantifies beat-to-beat interval irregularities as a metric for arrhythmically beating cells (FIG. 9). In this context, AP trains with AI values lower than 20 were determined to describe regular beating patterns, while AP train with AI values >20 mark were determined to describe irregular beating patterns (FIGS. 10A-E). Finally, to benchmark the platform for arrhythmia-associated phenotypes, the role of dofetilide, a class III anti-arrhythmic that selectively blocks the rapid component of the delayed rectifier outward potassium, was tested.
24 hours post-transfection, 2,000 primary human fibroblasts were added per well to the hiPSC-ACMs. 48 hours later (the day of the imaging), cells were dyed with the voltage sensitive dye Vf2.1 Cl as described above, then treated with 50 μL of 2× solution of isoproterenol (1 μM final) diluted in Tyrode alone and in combination with 2× solution of Verapamil (30 nM final), diluted in Tyrode at the 5th wash. After 20 minutes of compound incubation time, cells were imaged, and single-cell traces analyzed as described previously.

[2] = test system: hiPSC-ACMs (atrial-like cardiomyocytes); assay: Voltage assay in ACMs (single-cell APD); assay type: cell-based, human; settings: for median APD75: untreated 121.3 ms
From the text: Next, to facilitate the characterization of AF-associated arrhythmia phenotypes in ACMs, an imaging platform was developed that automatically tracks and quantifies action potential (AP) and rhythm parameters in HT with single cell resolution (FIGS. 4A-D). To retrieve AP and rhythm parameters, ACMs of the present disclosure were co-labeled with a voltage dye (VF2.1Cl) and a nuclear dye (Hoechst 33258) (McKeithan et al., 2017). For each condition, one image of the Hoechst dye was collected followed by a 5-second acquisition of the voltage dye channel at 100 Hz. Next, using a custom algorithm developed on the ImageXpress®, each cell in the field of view was segmented using the Hoechst topological information and each cell mask was propagated to the “voltage dye channel”, thereby enabling the quantification of voltage-dependent fluorescence variation over time with single-cell resolution. To retrieve the electrophysiological parameters, a cloud-based trace analysis application was developed that automatically processes each AP trace and retrieves median and standard deviation values, for APD-10, 25, 50, 75, 90; T25-75, T75-25; Vmax up and down; beat rate; peak-to-peak interval; and rhythm regularity index; for each cell. This platform enabled the automatic recording, quantification, and analysis of AP and rhythm parameters in less than 2 minutes per condition.
Voltage assay was performed using the labeling protocol described herein. Briefly, hiPSC-ACMs at day 25 of differentiation were dissociated with TrypLE Select 10× for up to 10 min and the action of TrypLE was neutralized with RPMI supplemented with 10% FBS. Cells were resuspended in RPMI with 2% KOSR (Gibco) and 2% B27 50× with vitamin A (Life Technologies) supplemented with 2 μM Thiazovivin and plated at a density of 6,000 cells per well in a Matrigel-coated 384-well plate. hiPSC-ACMs were then transfected with siRNAs directed against AFib-associated genes (ON-TARGETplus Human, siGATA4: J-008244-05-0002, siGATA5: J-010324-06-0005, siGATA6: J-008351-06-0005, siGJA1: J-011042-05-0002, siGJA5: J-017368-05-0002, siHAND2: J-008698-06-0005, siHCN4: J-006203-05-0002, siKCNA5: J-006215-06-0005, siKCND3: L-006226-00-0005, siKCNJ5: J-006250-06-0002, siKCNN3: J-006270-06-0002, siNKX2-5: J-019795-07-0002, siNKX2-6: J-025793-17-0002, siNPPA: J-012729-05-0002, siPITX2: J-017315-05-0005, siPLN: J-011754-05-0005, siSH3PXD2A: J-006657-07-0002, siSYNE2: J-019259-09-0002, siTBX5: J-013410-5-0002, siZFHX3: J-015410-5-0002) using lipofectamine RNAi Max (ThermoFisher). […] Fluorescence over time quantification and trace analysis were quantified using custom software packages. […]

Drosophila heart = assay: Octopamine-challenge heart assay; assay type: in vivo; settings: for mean nMAD (arrhythmia) post-octopamine pacing: 100 nM OA
From the text: Cardiac phenotypes of middle-aged (3-weeks old) female flies from each cross were characterized using denervated, semi-intact preparations as previously described in (Ocorr et al., 2009; Vogler and Ocorr, 2009). Briefly, hearts from 20-25 flies were examined for each genotype and age. Adult female flies were exposed to FlyNap, a triethylamine-based anesthetic, for at least one minute until no movement was detected. Hearts were exposed by dissection in room temperature, air bubbled, artificial hemolymph (AHL, Ocorr et al, 2007). High-speed video recordings were filmed with a Hamamatsu EM-CCD camera and using HC Image capture software (Hamamatsu Corp). Heart movements were analyzed using the Semi-automated Optical Heartbeat Analysis (SOHA) software (sohasoftware.com). Movies were recorded at speeds of 140+ fps with pixel resolution ˜ 1 micron/pixel allowing very precise temporal and spatial measurements, including heart period (HP) and rate (1/HP), diastolic and systolic intervals, and fractional shortening/contractility. To quantitate arrhythmia, median absolute deviation (MAD) was first calculated. The median value of the absolute deviations of each heart period (Xi) from the median heart period ((X)) was calculated and then multiplied by a constant (k=1.4826 assuming data is normally distributed).
To normalize the MAD index (nMAD), the MAD value was divided by the median heart period. Qualitative records of heart wall movements (M-modes/kymographs) were produced by electronically excising a 1 pixel horizontal “slice” from each movie frame and aligning them horizontally providing an edge trace displaying heart wall movements in the X-axis over time along the Y-axis (Ocorr et al., 2009; Ocorr et al., 2007c).
Octopamine (OA) pacing experiments were performed in situ on the semi-intact fly preparation. OA (Sigma-Aldrich #00250) stock solution (10 mM) was freshly prepared by dissolving in water and was further diluted in AHL. A dose-response curve was generated using doses ranging from 0.1 nM OA to 500 nM OA (Supplemental FIG. 5A). The increase in heart rate was maximal at 100 nM OA, which was the dose used for all subsequent pacing experiments (Supplemental FIG. 5B). Following dissection, hearts were first allowed to equilibrate in fresh AHL for 15 min and 30 sec movies of heart function were recorded. Heart function was recorded three times per fly: 1) pre-drug exposure, 2) after a 15-minute exposure to 100 nM OA, and 3) after a 15-minute post drug exposure recovery period. A second set of hearts exposed only to vehicle (AHL) were filmed at the same three 15-minute intervals to serve as time controls.

Id1-induced CPs = assay: Generation of atrial-like cardiomyocytes from Id1-induced cardiac progenitors; assay type: cell-based, human; settings: retinoic acid 300 nM single dose, day 12
Method: To study the molecular basis of chamber-specific electrical disorders such as atrial fibrillation, Id1-overexpressing cardiac progenitors (CPs) were used to generate ACMs (Cunningham et al., 2017, and Yu et al., 2018). Treatment of Id1-induced CPs with a single dose of retinoic acid (300 nM) efficiently promoted the generation of atrial-like, NR2F2+ beating CMs (˜80% were NR2F2+, ACTN2+) (FIG. 1 and FIGS. 2A-B). Consistent with an atrial-like identity, induced ACMs also expressed atria-enriched (Devalla et al., 2015; Uhlen et al., 2015) transcription factors (NR2F2, TBX5, ZNF385B), ion channel genes KCNA5 (encoding Kv1.5) and KCNJ3 (encoding Kir 3.1), ligands (NPPA, NPPB) and receptors (EGR1/2, PDGFRA), at both day 12 and at day 25 of differentiation (FIG. 2C and FIGS. 6A-B).
ACMs for the study were developed by dissociating Id1 overexpressing hiPSCsl with 0.5 mM EDTA (ThermoFisher Scientific) in PBS without CaCl2 and MgCl2 (Corning) for 7 min at room temperature. hiPSC were resuspended in mTeSR-1 media (StemCell Technologies) supplemented with 2 μM Thiazovivin (StemCell Technologies) and plated in a Matrigel-coated 12-well plate at a density of 3×10^5 cells per well. […]

[3] = acute OA exposure, control and KD lines

SMILES: CN(CCOc1ccc(NS(C)(=O)=O)cc1)CCc1ccc(NS(C)(=O)=O)cc1 [dofetilide]
- proportion of arrhythmic cells (AI>20) ([1]; dofetilide 33 nM, control 4.0%): 3.9%
- KS-D value of AI distribution vs control ([1]; dofetilide 100 nM): 0.7
- percentage of cells with AI values >20 ([1]; dofetilide 100 nM): 67%
- percentage of cells with AI values >20 ([1]; dofetilide 100 nM, listed as Dofetilide): 67.0%
- AI as compared to control ([1]; low dose of dofetilide (33 nM)): reduced AI

SMILES: CC(C)NCC(O)c1ccc(O)c(O)c1 (stereo not shown) [isoproterenol]
- percentage of arrhythmic cells ([1]; isoproterenol alone): did not increase
- APD75 KS-D value as compared to control ([2]; isoproterenol 1 μM): ~0.4
- median APD75 ([2]; isoproterenol 1 μM): 108.6 ms
- APD75 KS-D value as compared to control ([2]; isoproterenol 9 μM): 0.7
- median APD75 ([2]; isoproterenol 9 μM): 91.2 ms

SMILES: NCC(O)c1ccc(O)cc1 (stereo not shown) [octopamine]
- mean nMAD (arrhythmia) post-octopamine pacing (Drosophila heart; PLN/SclA KD hearts): 0.1342
- mean nMAD (arrhythmia) post-octopamine pacing (Drosophila heart; control hearts): 0.0379
- heart rate (Drosophila heart; [3]): significantly elevated heart rate
- systolic intervals (Drosophila heart; [3]): significantly shortening systolic intervals
- dose of maximal effect on heart rate (Drosophila heart; doses 0.1 nM to 500 nM OA): 100 nM
- contraction and relaxation intervals (Drosophila heart; in the presence of OA): significantly shortened

SMILES: CC1=C(/C=C/C(C)=C/C=C/C(C)=C/C(=O)O)C(C)(C)CCC1 [retinoic acid]
- NR2F2+, ACTN2+ cells (Id1-induced CPs): ~80%

SMILES: COc1ccc(CCN(C)CCCC(C#N)(c2ccc(OC)c(OC)c2)C(C)C)cc1OC (stereo not shown) [verapamil]
- fold less arrhythmic than DMSO control ([1]; verapamil 30 nM, PLN KD+Fib+isoproterenol): 1.7 fold
- percentage of arrhythmic cells ([1]; verapamil 30 nM, PLN KD+Fib+isoproterenol, DMSO control 31.2%): 18%
